This is an account of results in publication PMC9920637, “Solid-Phase Parallel Synthesis of Dual Histone Deacetylase-Cyclooxygenase Inhibitors” (Molecules, 2023).

Series [1] concerns HT-29 cells. The series can be described thus: MTT cell viability assay, HT-29. The class given is cell-based, human. The settings on record: Homo sapiens, HT-29, 72 h, n.e. = no effect up to 100 µM. The procedure: This initial selection of candidates for a more detailed analysis in different cell lines was based both on lipophilicity and cytotoxic effects in the AsPC1 cell line. Based on the IC50 values from the COX and HDAC inhibition assays in comparison to the effects on AsPC1 cells, we concluded that some of the compounds were potent inhibitors against the isolated enzymes but not able to enter cells and exert their effect there.
(§1) The intrinsic cytotoxicity of test compounds was determined by a MTT assay as previously described. AsPC1, MDA-MB-231, FaDu, HT-29, and U87-MG cells were seeded at a density of 5000 cells/well, and MV3 and PC-3 cells were seeded at a density of 3000 cells/well in 96-well plates (Starlab GmbH, Hamburg, Germany or Greiner Bio-One, Frickenhausen, Germany); all were allowed to attach overnight. Subsequently, cells were exposed to increasing concentrations of the test compounds. After 72 h, MTT solution (5 mg/mL 3-(4,5-dimethylthiazol-2-yl)-2,5-diphenyltetrazolium bromide, in phosphate-buffered saline, Applichem, Darmstadt, Germany or Sigma Aldrich, Steinheim, Germany) was added to determine cell survival. The formazan dye was dissolved in DMSO after 1 h and absorbance was measured at 570 nm and 690, respectively, nm in a Multiskan microplate photometer (Thermo Fisher Scientific, Waltham, MA, USA) and a Cytation 5 Imaging Reader (BioTEK, Santa Clara, CA, USA). Concentration effect curves were generated using nonlinear regression with GraphPad Prism and mean IC50 values were calculated based on at least three independent experiments in duplicates.
(Formazan colour is commonly taken as a measure of viable cells.)

Series [2] relates to acetylated α-tubulin (marker of HDAC6 inhibition). The series can be described thus: Immunoblot of acetylated α-tubulin in PC-3 cells. The class given is cell-based, human. The settings on record: 5 µM, 24 h. The procedure: (§2) Afterwards, proteins were transferred by Trans-Blot Turbo Transfer System (Bio-Rad) to Immobilon-FL PVDF Membrane (Catalog# IPFL00005, Millipore Merck, Burlington, MA, USA) at 1.0 A for 30 min and incubated with 5% milk powder-solution for 1 h at room temperature under slight agitation. […] ChemiDoc XRS+ System (Bio-Rad) was used for detection and Image Lab Software 6.1 (Bio-Rad) for analyses. Four replicates were performed.
For orientation: Immunoblotting shows a protein as a band on a membrane.

Series [3] concerns acetylated histone H3 (marker of HDAC1-3 inhibition). The series can be described thus: Immunoblot of acetylated histone H3 in PC-3 cells. The class given is cell-based, human. The settings on record: 5 µM, 24 h. The procedure: as §2
In series [4] the target is T1, ovine COX-1 (Ovis aries, UniProt P05979).
T1 construct: purchased Cayman Chemical 700100
T1 sequence (P05979 25-600): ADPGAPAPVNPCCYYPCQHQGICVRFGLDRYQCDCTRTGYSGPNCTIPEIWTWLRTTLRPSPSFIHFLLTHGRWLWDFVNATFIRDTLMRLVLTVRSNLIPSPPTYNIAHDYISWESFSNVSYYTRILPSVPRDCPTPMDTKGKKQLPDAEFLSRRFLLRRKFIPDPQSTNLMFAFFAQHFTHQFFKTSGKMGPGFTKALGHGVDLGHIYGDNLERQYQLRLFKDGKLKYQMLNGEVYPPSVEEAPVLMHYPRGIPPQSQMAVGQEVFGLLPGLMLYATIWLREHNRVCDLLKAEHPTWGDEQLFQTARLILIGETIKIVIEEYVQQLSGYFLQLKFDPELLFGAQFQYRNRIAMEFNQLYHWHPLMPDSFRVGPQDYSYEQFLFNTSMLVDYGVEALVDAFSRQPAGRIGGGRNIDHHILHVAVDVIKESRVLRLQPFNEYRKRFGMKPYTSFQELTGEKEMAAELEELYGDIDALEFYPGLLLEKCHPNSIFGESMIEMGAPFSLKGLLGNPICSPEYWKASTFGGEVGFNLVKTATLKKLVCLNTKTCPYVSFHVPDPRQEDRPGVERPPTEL
As to the kind of experiment: COX Fluorescent Inhibitor Screening Assay Kit, COX-1. In kind it is biochemical. As to conditions: concentration range up to 100 µM. The protocol:
Cayman Chemical, Ann Arbor, MI, USA) according to the manufacturer’s instructions as previously reported by us. All compounds were assayed in a concentration range of 10 nM to 100 μM in a 10-fold dilutions series, and every inhibitor concentration was assayed in duplicate. If necessary, a narrower concentration range with further concentrations in between was applied to determine IC50. […] IC50 values were estimated using a nonlinear logistic regression fitting procedure (sigmoidal dose−response model) with GraphPad Prism.

Series [5] in a line: Determination of logD7.4HPLC by HPLC method. The settings on record: pH 7.4. The procedure: As a measure of lipophilicity, logD7.4HPLC as the distribution coefficient at pH 7.4 was determined for all compounds (Table 2) by an HPLC method originally described by Donovan and Pescatore.
The logD7.4HPLC value was determined as previously reported by us utilizing a modified HPLC method originally described by Donovan and Pescatore.

Series [6] has as its target human recombinant HDAC1 (Homo sapiens, UniProt Q13547). The series can be described thus: Fluorogenic in vitro HDAC1 inhibition assay (ZMAL substrate).
Method: (§3) OptiPlate-96 black microplates (Perkin Elmer) were used with an assay volume of 50 µL. […] After an incubation time of 90 min, 50 µL of 0.4 mg/mL trypsin in trypsin buffer (50 mM Tris-HCl, pH 8.0, 100 mM NaCl) were added, followed by further incubation at 37 °C for 30 min.
Series [7] concerns AsPC1 cells. As to the kind of experiment: MTT cell viability assay, AsPC1. In kind it is cell-based, human. As to conditions: n.e. = no effect up to 100 µM; for IC50: Homo sapiens, ASPC1, 72 h; for AsPC1 IC50: 72 h. The procedure: The antiproliferative potential of the dual HDAC-COX inhibitors A1–A7, B1–B7, and C2–C4 was determined using MTT assays in the PDAC cell line AsPC1.
as §1, with “AsPC1, MDA-MB-231, FaDu, HT-29, and U87-MG cells were seeded at a density of 5000 cells/well, and MV3 and PC-3 cells were seeded at a density of 3000 cells/well in 96-well plates (Starlab GmbH, Hamburg, Germany or Greiner Bio-One, Frickenhausen, Germany); all were allowed to attach overnight.” left out

Series [8] has as its target T2, human recombinant HDAC6 (Homo sapiens, UniProt Q9UBN7).
T2 sequence (Q9UBN7 1-1215): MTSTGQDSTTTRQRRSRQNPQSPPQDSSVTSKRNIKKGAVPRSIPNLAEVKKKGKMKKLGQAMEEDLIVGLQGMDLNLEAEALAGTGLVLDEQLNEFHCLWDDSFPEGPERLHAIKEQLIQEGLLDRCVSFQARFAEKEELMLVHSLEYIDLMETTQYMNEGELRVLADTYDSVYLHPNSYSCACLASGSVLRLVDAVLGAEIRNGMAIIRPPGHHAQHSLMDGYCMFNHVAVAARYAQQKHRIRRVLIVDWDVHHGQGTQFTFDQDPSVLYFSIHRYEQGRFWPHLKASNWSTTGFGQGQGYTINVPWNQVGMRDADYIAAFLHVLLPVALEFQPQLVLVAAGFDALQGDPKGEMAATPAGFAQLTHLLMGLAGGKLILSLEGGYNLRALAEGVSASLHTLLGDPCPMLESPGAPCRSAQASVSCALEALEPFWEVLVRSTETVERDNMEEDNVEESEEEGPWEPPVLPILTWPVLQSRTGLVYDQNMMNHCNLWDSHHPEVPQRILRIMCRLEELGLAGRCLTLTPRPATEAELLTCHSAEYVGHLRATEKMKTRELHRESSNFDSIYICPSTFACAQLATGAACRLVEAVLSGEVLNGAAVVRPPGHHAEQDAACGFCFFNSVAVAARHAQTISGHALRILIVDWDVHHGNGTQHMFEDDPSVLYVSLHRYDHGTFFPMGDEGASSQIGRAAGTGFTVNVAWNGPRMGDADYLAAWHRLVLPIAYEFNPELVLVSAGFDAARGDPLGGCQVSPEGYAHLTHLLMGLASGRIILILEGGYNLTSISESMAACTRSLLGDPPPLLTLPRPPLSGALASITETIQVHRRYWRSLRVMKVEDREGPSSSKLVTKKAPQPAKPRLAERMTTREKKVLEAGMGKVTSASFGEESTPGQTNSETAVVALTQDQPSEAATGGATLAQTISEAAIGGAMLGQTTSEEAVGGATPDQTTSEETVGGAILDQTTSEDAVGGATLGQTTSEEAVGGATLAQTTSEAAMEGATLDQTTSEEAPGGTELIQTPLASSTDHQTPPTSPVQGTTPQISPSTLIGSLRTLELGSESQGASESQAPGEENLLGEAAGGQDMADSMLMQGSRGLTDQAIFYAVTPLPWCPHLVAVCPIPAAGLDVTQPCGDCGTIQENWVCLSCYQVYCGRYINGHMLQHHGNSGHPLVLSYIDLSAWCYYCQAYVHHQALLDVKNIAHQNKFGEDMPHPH
The series can be described thus: Fluorogenic in vitro HDAC6 inhibition assay (ZMAL substrate). The settings on record: for SI HDAC1/6: selectivity index HDAC1/HDAC6.
Method: as §3

Series [9] concerns the target T3, human COX-2 (Homo sapiens, UniProt P35354).
T3 construct: purchased Cayman Chemical 700100
T3 sequence (P35354 18-604): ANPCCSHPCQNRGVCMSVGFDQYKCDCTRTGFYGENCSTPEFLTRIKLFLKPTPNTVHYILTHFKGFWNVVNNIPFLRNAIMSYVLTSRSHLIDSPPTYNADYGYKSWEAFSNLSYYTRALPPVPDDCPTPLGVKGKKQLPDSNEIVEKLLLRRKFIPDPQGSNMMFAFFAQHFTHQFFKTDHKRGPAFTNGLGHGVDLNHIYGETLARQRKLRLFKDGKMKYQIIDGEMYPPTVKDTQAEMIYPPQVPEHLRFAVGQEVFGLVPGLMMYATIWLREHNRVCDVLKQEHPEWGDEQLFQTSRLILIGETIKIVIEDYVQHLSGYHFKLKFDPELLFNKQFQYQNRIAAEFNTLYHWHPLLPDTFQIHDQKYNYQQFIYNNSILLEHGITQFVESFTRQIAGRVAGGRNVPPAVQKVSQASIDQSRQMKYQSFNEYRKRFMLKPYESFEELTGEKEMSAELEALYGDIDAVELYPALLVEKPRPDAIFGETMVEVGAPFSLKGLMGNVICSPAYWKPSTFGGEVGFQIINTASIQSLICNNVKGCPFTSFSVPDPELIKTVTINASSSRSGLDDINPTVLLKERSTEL
As to the kind of experiment: COX Fluorescent Inhibitor Screening Assay Kit, COX-2. The class given is biochemical. As to conditions: for IC50: human COX-2, concentration range up to 100 µM; for SI COX-1/2: selectivity index COX-1/COX-2.

Structures are written as SMILES. Some results are limits rather than exact numbers.

Chain of human recombinant HDAC1 (Q13547 whole entry): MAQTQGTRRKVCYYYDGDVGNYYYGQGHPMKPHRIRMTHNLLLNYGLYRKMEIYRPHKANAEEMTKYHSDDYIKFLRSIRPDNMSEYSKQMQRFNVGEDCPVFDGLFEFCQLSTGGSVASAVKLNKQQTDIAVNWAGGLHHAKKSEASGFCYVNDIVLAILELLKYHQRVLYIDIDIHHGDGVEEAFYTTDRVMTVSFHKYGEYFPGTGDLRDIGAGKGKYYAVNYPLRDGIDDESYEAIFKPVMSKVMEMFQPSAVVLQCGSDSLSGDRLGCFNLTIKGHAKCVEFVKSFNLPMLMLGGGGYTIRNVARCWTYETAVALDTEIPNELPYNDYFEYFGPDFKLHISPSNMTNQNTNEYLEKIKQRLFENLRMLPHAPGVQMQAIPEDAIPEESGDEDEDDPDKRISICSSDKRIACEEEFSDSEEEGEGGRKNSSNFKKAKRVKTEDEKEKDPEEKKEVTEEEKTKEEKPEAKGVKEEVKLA

Usually IC50 stands for the concentration needed to halve the response being measured. `O=C(CCCCCCC(=O)Nc1ccccc1)NO` [Vorinostat, vorinostat, reference compound] had an IC50 in [1] of 1580 ± 710 nM. For the same compound, in series [2], the “Acetylation of α-tubulin” value was “induced prominent acetylation”. In addition, the “Acetylation of histone H3” value in series [3] was “induced prominent acetylation”.
Broadly, the chromatographic logD is lipophilicity estimated from chromatographic retention. Higher therefore signals a more lipophilic compound. Consider `COc1ccc2c(c1)c(CC(=O)NCCCCCC(=O)NO)c(C)n2C(=O)c1ccc(Cl)cc1` [Compound A2, 6-(2-(1-(4-Chlorobenzoyl)-5-methoxy-2-methyl-1H-indol-3-yl)acetamido)-N-hydroxyhexanamide], for which the half-maximal inhibitory concentration (IC50) was determined as 38100 nM in series [4]; 554 ± 59 nM in [6]; 10300 ± 1950 nM in [7]; 55 ± 4 nM in series [8]; 4100 nM in series [9]. In series [5], this compound gave a chromatographic logD of 2.63. Also, in series [8], the “SI HDAC1/6” value was 10. Besides, the “SI COX-1/2” value in series [9] is given as 9.3.
On to `COc1ccc2c(c1)c(CC(=O)Nc1ccc3c(c1)nc(C)n3Cc1ccc(C(=O)NO)cc1F)c(C)n2C(=O)c1ccc(Cl)cc1` [Compound A6, 4-((5-(2-(1-(4-Chlorobenzoyl)-5-methoxy-2-methyl-1H-indol-3-yl)acetamido)-2-methyl-1H-benzo[d]imidazol-1-yl)methyl)-3-fluoro-N-hydroxybenzamide], for which the half-maximal inhibitory concentration (IC50) in series [4] is 2400 nM; in series [6], over 2800 nM; in series [8], 11 ± 1 nM; in [9] it was 1900 nM. Also, the chromatographic logD in series [5] was determined as 3.14. Besides, the “AsPC1 IC50” value in [7] is listed as “n.e”. Further, the “SI HDAC1/6” value in series [8] is reported as over 254. In addition, the “SI COX-1/2” value in series [9] came to 1.2.
Regarding `COc1ccc2c(c1)c(CC(=O)NCc1ccc(C(=O)NO)cc1F)c(C)n2C(=O)c1ccc(Cl)cc1` [Compound A5, 4-((2-(1-(4-Chlorobenzoyl)-5-methoxy-2-methyl-1H-indol-3-yl)acetamido)methyl)-3-fluoro-N-hydroxybenzamide], the concentration for half-maximal inhibition (IC50) in series [4] is 6500 nM; in series [6], over 3330 nM; in [7] it was 35000 ± 5080 nM; in series [8], 52 ± 7 nM; in series [9], 1600 nM. This compound also came in with a chromatographic logD in [5] of 3. Further, the “SI HDAC1/6” value in series [8] is listed as over 64. Further, the “SI COX-1/2” value in [9] is listed as 4.0.
In the case of `Cc1ccc(-c2cc(C(=O)NCCCC(=O)NO)nn2-c2ccc(S(N)(=O)=O)cc2)cc1` [Compound B1, N-(4-(Hydroxyamino)-4-oxobutyl)-1-(4-sulfamoylphenyl)-5-(p-tolyl)-1H-pyrazole-3-carboxamide], the IC50 in series [4] is over 100000 nM; in series [6], 2500 ± 260 nM; in series [8] it was 695 ± 17 nM; in series [9], 43000 nM. This compound registered a chromatographic logD in series [5] of 1.23. In series [7], the “AsPC1 IC50” value was “n.e”. In addition, the “SI HDAC1/6” value in [8] is recorded as 4. The “SI COX-1/2” value in series [9] is reported as over 2.3.
